Reference: patent publication US8563715B2, “Pyrimidine derivative having cell protecting effect and uses thereof” (Zenyaku Kogyo Kabushikikaisha, priority 2008, dated 2013)

Row | Compound | melting point [°C]
1 | Fc1c(N2CCOCC2)nc(N2CCNC(c3ccccc3)C2)nc1N1CCOCC1 (stereo not shown) [Compound 93, 5-fluoro-4,6-dimorpholino-2-(3-phenylpiperazin-1-yl)pyrimidine] | 170 to 175
2 | Fc1ccc(N2CCN(c3nc(N4CCOCC4)c(F)c(N4CCOCC4)n3)CC2)cc1 [Compound 96, 5-fluoro-2-[4-(4-fluorophenyl)piperazin-1-yl]-4,6-dimorpholinopyrimidine] | 195 to 198
3 | Fc1ccc(N2CCN(c3nc(N4CCOCC4)nc(N4CCOCC4)c3F)CC2)cc1 [Compound 97, 5-fluoro-4-[4-(4-fluorophenyl)piperazin-1-yl]-2,6-dimorpholinopyrimidine] | 171 to 174
4 | Cc1ccc(N2CCN(c3nc(N4CCOCC4)c(F)c(N4CCOCC4)n3)CC2)cc1 [Compound 98, 5-fluoro-2-[4-(4-methylphenyl)piperazin-1-yl]-4,6-dimorpholinopyrimidine] | 201 to 203
5 | CC(=O)c1ccc(N2CCN(c3nc(N4CCOCC4)c(F)c(N4CCOCC4)n3)CC2)cc1 [Compound 100, 2-[4-(4-acetylphenyl)piperazin-1-yl]-5-fluoro-4,6-dimorpholinopyrimidine] | 195 to 198
6 | Fc1c(N2CCOCC2)nc(N2CCN(c3ccccc3Cl)CC2)nc1N1CCOCC1 [Compound 102, 2-[4-(2-chlorophenyl)piperazin-1-yl]-5-fluoro-4,6-dimorpholinopyrimidine] | 118
7 | CCOc1ccccc1N1CCN(c2nc(N3CCOCC3)c(F)c(N3CCOCC3)n2)CC1 [Compound 103, 2-[4-(2-ethoxyphenyl)piperazin-1-yl]-5-fluoro-4,6-dimorpholinopyrimidine] | 145
8 | Cc1ccccc1N1CCN(c2nc(N3CCOCC3)c(F)c(N3CCOCC3)n2)CC1 [Compound 104, 5-fluoro-2-[4-(2-methylphenyl)piperazin-1-yl]-4,6-dimorpholinopyrimidine] | 72
9 | Fc1ccccc1N1CCN(c2nc(N3CCOCC3)c(F)c(N3CCOCC3)n2)CC1 [Compound 106, 5-fluoro-2-[4-(2-fluorophenyl)piperazin-1-yl]-4,6-dimorpholinopyrimidine] | 144
10 | Oc1ccc(N2CCN(c3nc(N4CCOCC4)c(F)c(N4CCOCC4)n3)CC2)cc1 [Compound 107, 5-fluoro-2-[4-(4-hydroxyphenyl)piperazin-1-yl]-4,6-dimorpholinopyrimidine] | 141
11 | COc1ccccc1N1CCN(c2nc(N3CCOCC3)c(F)c(N3CCOCC3)n2)CC1 [Compound 108, 5-fluoro-2-[4-(2-methoxyphenyl)piperazin-1-yl]-4,6-dimorpholinopyrimidine] | 171
12 | Fc1c(N2CCOCC2)nc(N2CCN(c3ccc(Cl)cc3)CC2)nc1N1CCOCC1 [Compound 109, 2-[4-(4-chlorophenyl)piperazin-1-yl]-5-fluoro-4,6-dimorpholinopyrimidine] | 215
13 | COc1ccccc1N1CCN(c2nc(N(C)C)nc(N3CCOCC3)c2F)CC1 [Compound 111, 2-dimethylamino-5-fluoro-4-[4-(2-methoxyphenyl)piperazin-1-yl]-6-morpholinopyrimidine] | 108
14 | CN(C)c1nc(N2CCOCC2)c(F)c(N2CCN(c3ccccc3F)CC2)n1 [Compound 112, 2-dimethylamino-5-fluoro-4-[4-(2-fluorophenyl)piperazin-1-yl]-6-morpholinopyrimidine] | 95
15 | CN(C)c1nc(N2CCOCC2)c(F)c(N2CCN(c3ccc(Cl)cc3)CC2)n1 [Compound 113, 4-[4-(4-chlorophenyl)piperazin-1-yl]-2-dimethylamino-5-fluoro-6-morpholinopyrimidine] | 152
16 | OC1(c2ccccc2)CCN(c2nc(N3CCOCC3)c(F)c(N3CCOCC3)n2)CC1 [Compound 116, 5-fluoro-2-(4-hydroxy-4-phenylpiperidin-1-yl)-4,6-dimorpholinopyrimidine] | 177 to 180
